Reference: patent publication US20240057587A1, “ORGANIC AMMONIUM SALT AND HYDROGEN-BONDING MATERIAL TREATMENT AGENT USING SAME” (MIYOSHI OIL & FAT CO.,LTD., priority 2019, published 2024)
Where two headings read alike, the source gives them in different places.

Experiments:
[1] = biological target: T1, urease (Canavalia ensiformis, UniProt P07374); format: biochemical, sword bean; details: urease, 40° C., 80% RH, after 30 days, 1:1; for Enzyme activity retention rate (%) (after 30 days) Stabilizer:Enzyme = 1:1, Mixed by mortar: solid sample mixed by mortar; for Enzyme activity retention rate (%) (after 30 days) Stabilizer:Enzyme = 1:1, Solvent distilled away from dissolution solution: solid sample
T1 sequence (P07374 whole entry, looked up): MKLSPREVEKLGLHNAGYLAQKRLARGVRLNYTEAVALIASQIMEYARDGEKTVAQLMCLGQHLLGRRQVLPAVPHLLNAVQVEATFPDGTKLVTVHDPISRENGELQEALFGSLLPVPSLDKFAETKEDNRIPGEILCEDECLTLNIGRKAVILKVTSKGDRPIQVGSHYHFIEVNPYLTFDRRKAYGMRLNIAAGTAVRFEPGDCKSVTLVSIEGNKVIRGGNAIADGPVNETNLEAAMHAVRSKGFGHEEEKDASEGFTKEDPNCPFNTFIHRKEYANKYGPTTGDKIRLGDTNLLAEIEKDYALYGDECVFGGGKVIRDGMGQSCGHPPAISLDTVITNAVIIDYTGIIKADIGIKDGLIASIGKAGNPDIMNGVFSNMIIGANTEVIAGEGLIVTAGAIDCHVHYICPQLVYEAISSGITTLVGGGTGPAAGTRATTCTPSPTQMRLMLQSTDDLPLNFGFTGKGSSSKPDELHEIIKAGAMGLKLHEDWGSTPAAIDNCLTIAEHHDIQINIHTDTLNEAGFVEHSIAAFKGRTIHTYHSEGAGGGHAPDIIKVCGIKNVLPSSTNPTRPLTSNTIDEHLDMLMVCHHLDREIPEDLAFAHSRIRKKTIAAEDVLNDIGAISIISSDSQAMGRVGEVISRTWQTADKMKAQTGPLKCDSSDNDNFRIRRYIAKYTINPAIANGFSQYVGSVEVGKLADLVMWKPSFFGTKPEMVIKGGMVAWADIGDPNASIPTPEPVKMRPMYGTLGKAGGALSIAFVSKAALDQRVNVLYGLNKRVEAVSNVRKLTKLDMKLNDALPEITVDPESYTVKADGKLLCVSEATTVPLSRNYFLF

[2] = for Redispersibility Titanium oxide: dispersion liquid dried at 50° C. under reduced pressure for three hours, 0.50 g water added, remixed, visual
[3] = for Redispersibility Zirconium oxide: dispersion liquid dried at 50° C. under reduced pressure for three hours, 0.50 g water added, remixed, visual
[4] = biological target: T2, cytochrome C (Equus caballus, UniProt P00004); test: Protein long-term stability, 50% aqueous solution; design: species or system Horse; details: cytochrome C in 50 wt % aqueous solution of compound; 40° C.; after 30 days; 1:1
T2 construct: a reagent produced by NACALAI TESQUE, INC; (Horse Heart, molecular weight 12384) was used; purchased NACALAI TESQUE, INC; host or cells: horse heart (tissue origin)
T2 sequence (P00004 whole entry): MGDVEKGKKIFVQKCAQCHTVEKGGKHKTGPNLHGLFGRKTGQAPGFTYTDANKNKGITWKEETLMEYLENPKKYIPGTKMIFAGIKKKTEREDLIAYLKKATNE
Experimental: At first, changes in amide absorption by IR spectrum were precisely observed, and there were confirmed the higher-order structures of protein (turn, α-helix, random coil, β-sheet). The amide I region (1,600 to 1,700 cm^−1) and the amide II region (1,500 to 1,600 cm^−1) were measured by ATR method using a Fourier transform infrared spectrophotometer (FT/IR-6100 by JASCO Corporation), and peaks were then detected based on a difference(s) between a cytochrome C-free organic ammonium salt sample (blank) and a cytochrome C-containing organic ammonium salt sample (sample).
Further, the activity state of cytochrome C (Fe^2+: reduced form, Fe^3+: oxidized form) was confirmed via absorptions in UV spectrum. The measurement was conducted using an ultraviolet-visible spectrophotometer and a quartz cell having an optical path width of 2 mm, immediately after diluting the cytochrome C-containing organic ammonium salt sample to 1% with a 50 mM phosphate buffer of pH 7.4 (prepared using 50 mM potassium dihydrogen phosphate and 50 mM dipotassium hydrogen phosphate).

[5] = biological target: T1, urease; format: biochemical, sword bean; details: urease in 50 wt % aqueous solution of compound; 40° C., 80% RH; after 30 days; Stabilizer:Enzyme = 1:1
[6] = 0.25 g compound, 0.50 g water, 0.10 g zinc oxide; for Zinc oxide dispersibility: visual
[7] = for Redispersibility Dye: Vali Fast Black 3830 dispersion liquid dried at 50° C. under reduced pressure for three hours, 0.7 g water added, remixed, visual
[8] = Metal oxide dispersibility test (zirconium oxide); format: physicochemical; details: 0.25 g compound, 0.50 g water, 0.10 g zirconium oxide (IV); for Zirconium oxide dispersibility: visual
[9] = Metal oxide dispersibility test (titanium oxide); format: physicochemical; details: 0.25 g compound, 0.50 g water, 0.10 g titanium oxide (IV); for Titanium oxide dispersibility: visual
[10] = 0.25 g compound, 0.50 g water, 0.10 g barium titanate; for Barium titanate dispersibility: visual
[11] = system: DNA; test: DNA long-term stability, 50% aqueous solution; details: 40° C., 80% RH
[12] = biological target: T2, cytochrome C; test: Protein long-term stability (IR and UV spectrum), solid sample; design: species or system Horse; details: cytochrome C, solid sample, 40° C., 80% RH, after 30 days
[13] = biological target: T1, urease; format: biochemical, sword bean; details: solid sample, 40° C., 80% RH, after 30 days
[14] = Organic dye dispersibility test; format: physicochemical; details: 0.2 g compound, 0.7 g water; for Dye dispersibility: 0.1 g Vali Fast Black 3830, ultrasonic dispersion, after 24 hours, visual
[15] = Carbon nanotube dispersibility test; format: physicochemical; details: 0.25 g compound, 0.75 g water, 0.025 g carbon nanotubes; for Carbon nanotube dispersibility: visual

| SMILES | Enzyme activity retention rate (%) (after 30 days) Stabilizer:Enzyme = 1:1, Mixed by mortar [1] | Enzyme activity retention rate (%) (after 30 days) Stabilizer:Enzyme = 1:1, Solvent distilled away from dissolution solution [1] | Redispersibility Titanium oxide [2] | Redispersibility Zirconium oxide [3] | Protein long-term stability (after 30 days) Stabilize:Protein = 1:1 [4] | Enzyme activity retention rate(%) (after 30 days) Stabilizer: Enzyme = 1:1 [5] | Zinc oxide dispersibility [6] | Redispersibility Dye [7] | Zirconium oxide dispersibility [8] | Titanium oxide dispersibility [9] | Barium titanate dispersibility [10] | DNA long-term stability (after 30 days) Stabilizer: DNA = 1:1 [11] | Protein long-term stability (after 30 days) Stabilizer: Protein = 0.1:1 [12] | Protein long-term stability (after 30 days) Stabilizer: Protein = 1:1 [12] | Protein long-term stability (after 30 days) Stabilizer: Protein = 10:1 [12] | Enzyme activity retention rate(%) (after 30 days) Stabilizer: Enzyme = 0.1:1 [13] | Enzyme activity retention rate(%) (after 30 days) Stabilizer: Enzyme = 1:1 [13] | Enzyme activity retention rate(%) (after 30 days) Stabilizer: Enzyme = 10:1 [13] | Dye dispersibility [14] | Carbon nanotube dispersibility [15] | also measured |
| --- | --- | --- | --- | --- | --- | --- | --- | --- | --- | --- | --- | --- | --- | --- | --- | --- | --- | --- | --- | --- | --- |
| NC(CO)(CO)CO [Working example 48] | 9% | 48% | ○ ○ ○ ○ | ○ ○ ○ ○ | ○ | 30% | ○ ○ ○ ○ | ○ ○ ○ ○ | ○ ○ ○ ○ | ○ ○ ○ ○ | ○ ○ ○ ○ | ○ ○ | ◯ | ◯ | ◯ | 18% | 48% | 52% | ○ ○ ○ ○ | ○ ○ |  |
| CCC(N)(CO)CO [Working example 35] | 0% | 16% |  |  |  | 10% |  |  |  |  |  | ○ ○ |  |  |  | 9% | 16% | 22% |  |  |  |
| CCCC[N+](CCCC)(CCCC)CCCC.[Br-] [Comparative example 12, tetra-n-butylammonium bromide, reference compound] |  |  |  |  |  |  |  |  |  |  |  |  |  |  |  |  |  |  |  |  | dispersed state after redispersion (visual) ([2]; dried titanium oxide dispersion, 0.50 g of water added): precipitates were observed immediately after performing mixing with the mixer; dispersed state after redispersion (visual) ([3]; dried zirconium oxide dispersion, 0.50 g of water added): precipitates were observed immediately after performing mixing with the mixer; dispersed state of zinc oxide (visual) [6]: zinc oxide did not disperse, but immediately precipitated; dispersed state after redispersion (visual) ([7]; dried Vali Fast Black 3830 dispersion, 0.7 g of water added): precipitates were observed immediately after performing mixing with the mixer; dispersed state of zirconium oxide (visual) [8]: zirconium oxide immediately precipitated, and therefore did not disperse; dispersed state of titanium oxide (visual) [9]: a low dispersibility was observed as titanium oxide had precipitated; dispersed state of barium titanate (visual) [10]: barium titanate did not disperse, but immediately precipitated; mixed and dispersed state of organic dye after 24 hours (visual) ([14]; 0.1 g Vali Fast Black 3830, ultrasonic dispersion): the organic dye did not disperse, but precipitated; dispersed state of carbon nanotubes (visual) [15]: the carbon nanotubes did not disperse, but precipitated |
| NC(CO)(CO)CO [Working example 28] | 12% | 65% | ○ ○ ○ ○ | ○ ○ ○ ○ | ○ ○ ○ | 15% | ○ ○ ○ ○ | ○ ○ ○ ○ | ○ ○ ○ ○ | ○ ○ ○ ○ | ○ ○ ○ ○ | ○ ○ | ◯ | ◯ | ◯ | 15% | 65% | 35% | ○ ○ ○ ○ | ○ ○ |  |
| NC(CO)(CO)CO [Working example 36] | 7% | 41% | ○ ○ ○ ○ | ○ ○ ○ ○ | ○ ○ ○ | 39% | ○ ○ ○ ○ | ○ ○ ○ ○ | ○ ○ ○ ○ | ○ ○ ○ ○ | ○ ○ ○ ○ |  | ◯ | ◯ | ◯ | 27% | 41% | 45% | ○ ○ ○ ○ |  |  |
| NC(CO)CO [Working example 26] | 13% | 81% |  |  | ○ | 18% |  |  | ○ | ○ |  | ○ | ◯ | ◯ | ◯ | 10% | 81% | 25% | ○ | ○ |  |
| CCC(N)(CO)CO [Working example 27] | 10% | 74% |  |  | ○ ○ | 11% |  |  | ○ ○ | ○ ○ |  | ○ ○ | ◯ ◯ | ◯ ◯ | ◯ ◯ | 8% | 74% | 20% |  | ○ ○ |  |
